Data taken from PubChem BioAssay AID2060621 (Molecular Pharmacology Branch, DTP, NCI, 2025).

System: 324938-238-R-J1-PDC complex spheroids viability
Assay: Anticancer human tumor 324938-238-R-J1-PDC patient-derived bladder carcinoma cell line growth inhibition [CLK]
Conditions: for IC50: curve of first compound; for viability, T/C: stronger effect = lower value
Summary of the method: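 Patient-derived tumor cells grown as complex spheroids with HUVEC endothelial cells and mesenchymal stem cells, treated with drug combinations. Concentrations descend in half-log steps from near clinical Cmax, or from 10 microM if Cmax unknown.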

[1] = second compound 0.0316 µM, first compound 0.0316 µM
[2] = second compound 0.0316 µM, first compound 0.1 µM
[3] = second compound 0.0316 µM, first compound 0.316 µM
[4] = second compound 0.0316 µM, first compound 1 µM
[5] = second compound 0.0316 µM, first compound 3.16 µM
[6] = second compound 0.0316 µM, first compound 10 µM
[7] = second compound 0.1 µM, first compound 0.0316 µM
[8] = second compound 0.1 µM, first compound 0.1 µM
[9] = second compound 0.1 µM, first compound 0.316 µM
[10] = second compound 0.1 µM, first compound 1 µM
[11] = second compound 0.1 µM, first compound 3.16 µM
[12] = second compound 0.1 µM, first compound 10 µM
[13] = second compound 0.316 µM, first compound 0.0316 µM
[14] = second compound 0.316 µM, first compound 0.1 µM
[15] = second compound 0.316 µM, first compound 0.316 µM
[16] = second compound 0.316 µM, first compound 1 µM
[17] = second compound 0.316 µM, first compound 3.16 µM
[18] = second compound 0.316 µM, first compound 10 µM
[19] = second compound 1 µM, first compound 0.0316 µM
[20] = second compound 1 µM, first compound 0.1 µM
[21] = second compound 1 µM, first compound 0.316 µM
[22] = second compound 1 µM, first compound 1 µM
[23] = second compound 1 µM, first compound 3.16 µM
[24] = second compound 1 µM, first compound 10 µM
[25] = second compound 3.16 µM, first compound 0.0316 µM
[26] = second compound 3.16 µM, first compound 0.1 µM
[27] = second compound 3.16 µM, first compound 0.316 µM
[28] = second compound 3.16 µM, first compound 1 µM
[29] = second compound 3.16 µM, first compound 3.16 µM
[30] = second compound 3.16 µM, first compound 10 µM
[31] = second compound 10 µM, first compound 0.0316 µM
[32] = second compound 10 µM, first compound 0.1 µM
[33] = second compound 10 µM, first compound 0.316 µM
[34] = second compound 10 µM, first compound 1 µM
[35] = second compound 10 µM, first compound 3.16 µM
[36] = second compound 10 µM, first compound 10 µM
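Also: viability read after seven days of drug exposure.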
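For viability, T/C in this document: 100% = DMSO vehicle control wells.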

CC(=O)O[C@H]1C(=O)[C@@]2(C)[C@H]([C@H](OC(=O)c3ccccc3)[C@]3(O)C[C@H](OC(=O)[C@H](O)[C@@H](NC(=O)c4ccccc4)c4ccccc4)C(C)=C1C3(C)C)[C@]1(OC(C)=O)CO[C@@H]1C[C@@H]2O + CN1CCN(c2cc(C(=O)Nc3cc4cc(-c5cnn(C)c5)ccc4cn3)ccn2)CC1 was tested, and the IC50 (second compound 0.0316 µM) was < 31.6 nM, the IC50 (second compound 0.1 µM) was < 31.6 nM and the IC50 (second compound 0.316 µM) was < 31.6 nM. The IC50 (second compound 1 µM) was < 31.6 nM, the IC50 (second compound 3.16 µM) was < 31.6 nM and the IC50 (second compound 10 µM) was < 31.6 nM. For the same compound, the viability, T/C [1] was 14.2%, the viability, T/C [2] was 13.8% and the viability, T/C [3] was 14.7%. The viability, T/C [4] was 12.9%, the viability, T/C [5] was 14.6% and the viability, T/C [6] was 15.7%. It also gave a viability, T/C [7] of 13.7%, a viability, T/C [8] of 14% and a viability, T/C [9] of 13.6%. For the same compound, the viability, T/C [10] was 13.8%, the viability, T/C [11] was 14.5% and the viability, T/C [12] was 16.9%. It also gave a viability, T/C [13] of 16.9%, a viability, T/C [14] of 15.6% and a viability, T/C [15] of 15.2%. It also gave a viability, T/C [16] of 16.9%, a viability, T/C [17] of 15% and a viability, T/C [18] of 18%. The viability, T/C [19] was 0.92%, the viability, T/C [20] was 0.96% and the viability, T/C [21] was 0.69%. It also gave a viability, T/C [22] of 1.04%, a viability, T/C [23] of 0.73% and a viability, T/C [24] of 0.69%. For the same compound, the viability, T/C [25] was 0.17%, the viability, T/C [26] was 0.22% and the viability, T/C [27] was 0.22%. The viability, T/C [28] was 0.13%, the viability, T/C [29] was 0.21% and the viability, T/C [30] was 0.18%. For the same compound, the viability, T/C [31] was 0.13%, the viability, T/C [32] was 0.16% and the viability, T/C [33] was 0.51%. The viability, T/C [34] was 0.16%, the viability, T/C [35] was 0.28% and the viability, T/C [36] was 0.28%.
With C#Cc1c(F)ccc2cc(O)cc(-c3ncc4c(N5CC6CCC(C5)N6)nc(OCC56CCCN5CC(F)C6)nc4c3F)c12 (stereo unspecified) + CN1CCN(c2cc(C(=O)Nc3cc4cc(-c5cnn(C)c5)ccc4cn3)ccn2)CC1 the IC50 (second compound 0.0316 µM) was 5050 nM, the IC50 (second compound 0.1 µM) was 1240 nM and the IC50 (second compound 0.316 µM) was < 31.6 nM. The IC50 (second compound 1 µM) was < 31.6 nM, the IC50 (second compound 3.16 µM) was < 31.6 nM and the IC50 (second compound 10 µM) was < 31.6 nM. For the same compound, the viability, T/C [1] was 77.5%, the viability, T/C [2] was 86.1% and the viability, T/C [3] was 74.5%. It also gave a viability, T/C [4] of 69.9%, a viability, T/C [5] of 56% and a viability, T/C [6] of 41.4%. It also gave a viability, T/C [7] of 57.3%, a viability, T/C [8] of 51.8% and a viability, T/C [9] of 52.7%. It also gave a viability, T/C [10] of 52.8%, a viability, T/C [11] of 38% and a viability, T/C [12] of 32.7%. It also gave a viability, T/C [13] of 28.2%, a viability, T/C [14] of 28% and a viability, T/C [15] of 22.2%. It also gave a viability, T/C [16] of 23.9%, a viability, T/C [17] of 21.5% and a viability, T/C [18] of 19.4%. The viability, T/C [19] was 2%, the viability, T/C [20] was 2.51% and the viability, T/C [21] was 2.35%. For the same compound, the viability, T/C [22] was 2.31%, the viability, T/C [23] was 1.37% and the viability, T/C [24] was 0.75%. For the same compound, the viability, T/C [25] was 0.13%, the viability, T/C [26] was 0.3% and the viability, T/C [27] was 0.16%. It also gave a viability, T/C [28] of 0.11%, a viability, T/C [29] of 0.15% and a viability, T/C [30] of 0.14%. It also gave a viability, T/C [31] of 0.11%, a viability, T/C [32] of 0.16% and a viability, T/C [33] of 1.1%. For the same compound, the viability, T/C [34] was 0.14%, the viability, T/C [35] was 0.15% and the viability, T/C [36] was 0.24%.
For COC1C=CCC(C)C(C)S(=O)(=O)NC(=O)c2ccc3c(c2)N(CC2CCC21)CC1(CCCc2cc(Cl)ccc21)CO3 (stereo unspecified) + CNC(=O)c1ccc(Nc2nc(OC3CCCC3)c3c(-c4ccc5nc(C)oc5c4)c[nH]c3n2)c(OC)c1, the IC50 (second compound 0.0316 µM) was 210 nM, the IC50 (second compound 0.1 µM) was < 31.6 nM and the IC50 (second compound 0.316 µM) was < 31.6 nM. The IC50 (second compound 1 µM) was < 31.6 nM, the IC50 (second compound 3.16 µM) was < 31.6 nM and the IC50 (second compound 10 µM) was < 31.6 nM. For the same compound, the viability, T/C [1] was 89.6%, the viability, T/C [2] was 79.6% and the viability, T/C [3] was 32.8%. It also gave a viability, T/C [4] of 21.8%, a viability, T/C [5] of 15.3% and a viability, T/C [6] of 7.03%. The viability, T/C [7] was 31.7%, the viability, T/C [8] was 27.9% and the viability, T/C [9] was 24.4%. The viability, T/C [10] was 15.4%, the viability, T/C [11] was 22.5% and the viability, T/C [12] was 8.36%. It also gave a viability, T/C [13] of 18%, a viability, T/C [14] of 15.1% and a viability, T/C [15] of 12.9%. The viability, T/C [16] was 12.1%, the viability, T/C [17] was 10.7% and the viability, T/C [18] was 7.76%. The viability, T/C [19] was 15.1%, the viability, T/C [20] was 13.3% and the viability, T/C [21] was 11.8%. It also gave a viability, T/C [22] of 11.2%, a viability, T/C [23] of 11.3% and a viability, T/C [24] of 7.89%. For the same compound, the viability, T/C [25] was 16.1%, the viability, T/C [26] was 13.2% and the viability, T/C [27] was 13.1%. The viability, T/C [28] was 10.6%, the viability, T/C [29] was 11.4% and the viability, T/C [30] was 8.28%. For the same compound, the viability, T/C [31] was 14.7%, the viability, T/C [32] was 15% and the viability, T/C [33] was 15%. It also gave a viability, T/C [34] of 10.7%, a viability, T/C [35] of 11.6% and a viability, T/C [36] of 9.83%.
